Experimental data as given in patent publication EP0045161A1, “Amides of 4-oxo-5-amidohexanoic acid derivatives” (IMPERIAL CHEMICAL INDUSTRIES PLC, priority 1980, dated 1982).

Target: angiotensin converting enzyme (Homo sapiens, UniProt P12821)
Assay: inhibition of angiotensin converting enzyme (cleavage of angiotensin I or a related synthetic peptide by ACE)
Format: biochemical
Description: ACE is the enzyme which converts angiotensin I to angiotensin II.

Chain of angiotensin converting enzyme (P12821 30-1306, species assumed): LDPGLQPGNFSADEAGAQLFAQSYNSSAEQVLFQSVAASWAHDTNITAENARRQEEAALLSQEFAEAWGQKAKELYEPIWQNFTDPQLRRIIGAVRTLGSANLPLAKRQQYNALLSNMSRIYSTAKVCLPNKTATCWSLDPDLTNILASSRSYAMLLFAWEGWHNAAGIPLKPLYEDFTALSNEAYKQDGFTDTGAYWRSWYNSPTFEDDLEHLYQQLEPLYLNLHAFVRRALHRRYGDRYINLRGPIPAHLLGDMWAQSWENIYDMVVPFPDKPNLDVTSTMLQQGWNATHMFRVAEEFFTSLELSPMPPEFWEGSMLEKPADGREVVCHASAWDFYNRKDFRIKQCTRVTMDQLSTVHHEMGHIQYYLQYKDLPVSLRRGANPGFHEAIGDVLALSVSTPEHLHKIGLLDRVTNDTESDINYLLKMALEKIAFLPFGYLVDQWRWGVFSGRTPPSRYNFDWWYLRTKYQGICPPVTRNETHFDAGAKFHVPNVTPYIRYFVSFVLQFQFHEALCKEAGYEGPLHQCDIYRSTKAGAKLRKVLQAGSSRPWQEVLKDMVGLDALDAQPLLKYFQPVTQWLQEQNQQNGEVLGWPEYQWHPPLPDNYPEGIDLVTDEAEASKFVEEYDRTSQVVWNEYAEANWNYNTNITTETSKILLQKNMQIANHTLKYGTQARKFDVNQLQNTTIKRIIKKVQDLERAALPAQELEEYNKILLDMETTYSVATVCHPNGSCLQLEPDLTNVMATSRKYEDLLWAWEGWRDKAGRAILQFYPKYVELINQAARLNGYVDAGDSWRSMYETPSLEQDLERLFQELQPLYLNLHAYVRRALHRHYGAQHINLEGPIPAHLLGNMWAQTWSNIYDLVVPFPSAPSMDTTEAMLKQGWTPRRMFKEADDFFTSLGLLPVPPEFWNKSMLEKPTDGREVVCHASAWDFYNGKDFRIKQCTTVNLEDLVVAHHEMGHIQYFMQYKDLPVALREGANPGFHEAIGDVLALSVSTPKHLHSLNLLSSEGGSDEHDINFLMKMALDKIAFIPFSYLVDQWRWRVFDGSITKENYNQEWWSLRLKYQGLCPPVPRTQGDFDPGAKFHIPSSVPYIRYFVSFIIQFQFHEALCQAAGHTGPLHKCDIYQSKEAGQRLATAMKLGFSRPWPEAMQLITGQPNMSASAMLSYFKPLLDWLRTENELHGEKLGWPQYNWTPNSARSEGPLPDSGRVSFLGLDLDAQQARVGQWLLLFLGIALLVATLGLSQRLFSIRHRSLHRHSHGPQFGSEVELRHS

SMILES	times more active as an inhibitor or angiotensin converting enzyme (relative to the less polar isomer (Compound No. 6D), isomers at the 5-carbon atom of the hexanoyl chain)	times more active as an inhibitor of angiotensin converting enzyme (relative to the more polar isomer (Compound No. 6B), isomers at the 2-carbon atom of the hexanoyl chain)
CC(CC(=O)C(Cc1ccccc1)NC(=O)c1ccccc1)C(=O)N1CCC[C@H]1C(=O)OC(C)(C)C (single isomer, unassigned) [Compound No. 6C]	100 times	
CC(CC(=O)C(Cc1ccccc1)NC(=O)c1ccccc1)C(=O)N1CCC[C@H]1C(=O)OC(C)(C)C (single isomer, unassigned) [Compound No. 6A]		10 times
